# Assay results taken from PMC7910394, “Design of PSMA ligands with modifications at the inhibitor part: an approach to reduce the salivary gland uptake of radiolabeled PSMA inhibitors?” (EJNMMI Radiopharmacy and Chemistry, 2021).
# Tests used:
# LNCaP cells = assay: Internalization study of 177Lu-labeled ligands in LNCaP cells, normalized to ([125I]I-BA)KuE; format: cell-based, human; conditions: 37 °C; for internalization (in words): time points 0.5 h, 2 h and 4 h; for %Internalization compared to the reference: 1.0 nM 177Lu-compound, normalized to ([125I]I-BA)KuE
# Experimental: (§1) PSMA-positive LNCaP cells (300265; Cell Lines Service, Eppelheim, Germany) were cultivated in Dulbecco’s modified Eagle medium/Nutrition Mixture F-12 with GlutaMAX (1/1, DMEM-F12, Thermo Fisher Scientific, Darmstadt, Germany) supplemented with 10% fetal bovine serum (Merck KGaA, Darmstadt, Germany) and kept at 37 °C in a humidified 5% CO2 atmosphere. One day (24 ± 2 h) prior to all in vitro experiments, the cultivated LNCaP cells were harvested using a mixture of trypsin/ethylenediamine-tetraacetic acid (0.05%/0.02%) in PBS (Thermo Fisher Scientific, Darmstadt, Germany) and centrifuged at 1300 rpm (ca. 190×g) for 3 min at room temperature (Heraeus Megafuge 16, Thermo Fisher Scientific, Darmstadt, Germany). After centrifugation, the supernatant was disposed and the cell pellet was resuspended in culture medium. Cells were counted with a Neubauer hemocytometer (Paul Marienfeld GmbH & Co. KG, Lauda-Königshofen, Germany) and seeded in 24-well plates.
# (§2) Detailed information on affinity and internalization experiments is provided in the supporting information. […] IC50 values of (^natI-BA)KuE were determined on the same day for monitoring assay performance and to identify abnormal deviations in uptake and/or affinity. […] Data were corrected for non-specific binding and normalized to the specific internalization observed for the radioiodinated reference compound (n = 3).
# The culture medium was removed and the cells were washed with 500 µL of DMEM-F12 containing 5% BSA. Afterwards, 200 µL of DMEM-F12 (5% BSA) were added to each well and left to equilibrate at 37 °C for 15 min. 25 µL of DMEM-F12 (5% BSA) were added to each well, followed by the addition of 25 µL of the respective ^177Lu-labeled ligand (10.0 nM in DMEM-F12 (5% BSA)). For blocking PSMA-specific binding and uptake, 25 µL of 2-(phosphonomethyl)pentane-1,5-dioic acid (2-PMPA) (100 µM in DMEM (5% BSA)) instead of DMEM-F12 (5% BSA) were added prior to radiotracer addition. […] Each experiment (control and blockade) was performed in triplicate. […] Incubation was terminated by placing the plate on ice (4 °C, 1 min) and removal of the incubation medium. The cells were washed with 250 µL of ice-cold PBS and the wash medium was combined with the respective supernatant. This fraction represents the amount of free radioligand. 250 µL of ice-cold 2-PMPA (10 µM in PBS) were added and the cells were incubated for 10 min at 4 °C. Afterwards, the cells were rinsed again with 250 µL of ice-cold PBS and the wash medium was combined with the respective supernatant. This fraction represents the amount of cell surface-bound ligand. In the last step, the cells were lysed by addition of 250 µL of 1 M aqueous NaOH. After 20 min, the lysate of each well was transferred to the respective vial as well as 250 µL of 1 M NaOH used for rinsing the well. This fraction represents the amount of internalized radioligand. Quantification of the amount of free, cell surface-bound and internalized activity was performed in a γ-counter.
# [1] = Lipophilicity (log D), shake-flask method; format: physicochemical; conditions: n-octanol/PBS pH 7.4, 177Lu-labeled compound, n = 6
# Experimental: The log D values were determined, using the shake-flask method as previously described (Wurzer et al. [2020]). The radiolabeled tracer (0.5–1 MBq, 20 μL) was dissolved in 1 mL of a 1/1 mixture (v/v) of PBS (pH 7.4) and n-octanol in a reaction vial (n = 6). After vigorous mixing of the suspension for 3 min at r.t., the vial was centrifuged at 9000 rpm (ca. 7700×g) for 5 min at room temperature (Heraeus Biofuge 15, Thermo Fisher Scientific, Darmstadt, Germany) and 150 μL aliquots of both layers were measured in a ɣ-counter.
# PSMA = target: T1, PSMA (Homo sapiens, UniProt Q04609); assay: Competitive binding assay (IC50) on LNCaP cells with ([125I]I-BA)KuE as radioligand; conditions: ([125I]I-BA)KuE 0.2 nM, HBSS (1% BSA), 4 °C, 1 h
# T1 construct: host or cells: LNCaP human prostate cancer cells
# T1 sequence (Q04609 whole entry): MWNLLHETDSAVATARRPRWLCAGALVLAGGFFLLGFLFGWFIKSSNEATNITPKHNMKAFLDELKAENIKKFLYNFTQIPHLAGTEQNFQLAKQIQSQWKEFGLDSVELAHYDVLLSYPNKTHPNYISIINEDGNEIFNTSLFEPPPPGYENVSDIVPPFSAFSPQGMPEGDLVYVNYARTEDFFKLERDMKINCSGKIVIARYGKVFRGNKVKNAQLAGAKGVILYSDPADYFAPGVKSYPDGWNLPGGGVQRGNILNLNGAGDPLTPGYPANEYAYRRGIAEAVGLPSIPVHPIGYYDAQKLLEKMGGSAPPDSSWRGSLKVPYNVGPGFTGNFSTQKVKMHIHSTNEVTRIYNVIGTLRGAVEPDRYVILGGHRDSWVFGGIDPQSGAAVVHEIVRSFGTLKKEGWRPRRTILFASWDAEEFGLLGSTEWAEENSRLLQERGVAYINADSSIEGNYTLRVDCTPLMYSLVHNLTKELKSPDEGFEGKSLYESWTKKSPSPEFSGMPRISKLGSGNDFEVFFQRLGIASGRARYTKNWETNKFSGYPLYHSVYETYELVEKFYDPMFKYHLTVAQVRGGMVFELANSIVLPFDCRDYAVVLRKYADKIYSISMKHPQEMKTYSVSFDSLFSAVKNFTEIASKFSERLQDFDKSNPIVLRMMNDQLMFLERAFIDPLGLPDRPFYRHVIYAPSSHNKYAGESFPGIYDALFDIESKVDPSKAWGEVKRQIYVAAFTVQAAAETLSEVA
# Experimental: as §1, §2
# The culture medium was removed and the cells were washed with 500 µL of Hank’s balanced salt solution (HBSS) (Merck KGaA, Darmstadt, Germany), containing 1% bovine serum albumin (BSA) (Merck KGaA, Darmstadt, Germany). Afterwards, 200 µL of HBSS (1% BSA) were added to each well and equilibrated on ice (4 °C) for 15 min. […] Experiments were carried out in triplicates for each concentration. The final concentrations of unlabeled ligand ranged from 10^-11 - 10^-5 M and the final radioligand concentration was 0.2 nM in all binding assays. The cells were incubated for one hour at 4 °C. Incubation was terminated by removal of the incubation medium. The cells were washed with 250 µL of HBSS (1% BSA) and the wash medium was combined with the respective supernatant. This fraction represents the amount of free radioligand. The cells were lysed by addition of 250 µL of 1 M aqueous NaOH. The lysate of each well was transferred to the respective vial as well as 250 µL of 1 M NaOH used for rinsing the well. Quantification of the amount of free and bound activity was performed in a γ-counter. The corresponding IC50 values were calculated using the GraphPad PRISM7 software.
# [2] = tested on: LNCaP tumor xenograft-bearing CB17-SCID mice; format: in vivo, mouse; conditions: 24 h p.i.
# Experimental: All animal experiments were conducted in accordance with general animal welfare regulations in Germany (German animal protection act, as amended on 18.05.2018, Art. 141 G v. 29.3.2017 I 626, approval no. 55.2–1-54-2532-71-13) and the institutional guidelines for the care and use of animals. To establish tumor xenografts, LNCaP cells (approx. 10^7 cells) were suspended in 200 μL of a 1/1 mixture (v/v) of DMEM F-12 and Matrigel (BD Biosciences, Heidelberg, Germany) and inoculated subcutaneously onto the right shoulder of 6–8 weeks old CB17-SCID mice (Charles River Laboratories, Sulzfeld, Germany). Mice were used for experiments when tumor size reached 5–10 mm in diameter (3–6 weeks after inoculation).
# (§3) Approximately 2–10 MBq (0.20 nmol) of the ^177Lu-labeled PSMA inhibitors were injected into the tail vein of LNCaP tumor xenograft-bearing male CB17-SCID mice (n = 3 to 5). They were sacrificed by CO2 asphyxiation and cervical dislocation either 1 h or 24 h post injection (p.i.) (n = 3 for [^177Lu]Lu-5, -6 & -7 (proinhibitor compounds I-III), n = 4 for [^177Lu]Lu-10 (alkyne), n = 5 for [^177Lu]Lu-3 (carbamate I) and n = 5 for [^177Lu]Lu-11 (tetrazole)). Selected organs were removed, weighed and organ activities measured in a γ-counter.
# as §3, with “2 - 10” for “2–10”, “(alkyne) and” for “(alkyne),”
# [3] = in vivo; cited from earlier work
Compound,internalization (in words) (LNCaP cells; 1 h),%Internalization compared to the reference (LNCaP cells; 0.5 h),%Internalization compared to the reference (LNCaP cells; 1 h),%Internalization compared to the reference (LNCaP cells; 2 h),%Internalization compared to the reference (LNCaP cells; 4 h),log D [1],IC50 (PSMA) [µM],Biodistribution Heart [2] [% ID/g],Biodistribution Intestine [2] [% ID/g],Biodistribution Kidneys [2] [% ID/g],Biodistribution Liver [2] [% ID/g],Biodistribution Lung [2] [% ID/g],Biodistribution Pancreas [2] [% ID/g],Biodistribution Parotid gland [2] [% ID/g],Biodistribution Spleen [2] [% ID/g],Biodistribution Stomach [2] [% ID/g],Biodistribution Submandibular gland [2] [% ID/g],Biodistribution Tumor [2] [% ID/g],further results
CSCC[C@H](NC(=O)CC[C@H](NC(=O)N[C@@H](CCC(=O)N[C@H](CCCNC(=O)CCC(=O)NCCCC[C@@H](NC(=O)[C@@H](CNC(=O)c1ccc([Si](F)(C(C)(C)C)C(C)(C)C)cc1)NC(=O)CN1CCN(CC(=O)[O-])CCN(CC(=O)[O-])CCN(CC(=O)[O-])CC1)C(=O)O)C(=O)O)C(=O)O)C(=O)O)C(=O)O.[Lu+3] [^natLu/[^177Lu]Lu-5],no internalization could be detected,0.00 ± 0.00%,0.00 ± 0.00%,0.17 ± 0.32%,0.01 ± 0.05%,−2.89 ± 0.18,26 ± 16,0.01 ± 0.00,0.55 ± 0.04,0.48 ± 0.02,0.05 ± 0.00,0.33 ± 0.30,0.01 ± 0.00,0.02 ± 0.00,0.05 ± 0.01,0.14 ± 0.07,0.02 ± 0.01,0.09 ± 0.02,
CCCCCCC(NC(=O)C(CCC(=O)O)NC(=O)NC(CCC(=O)NC(CCCNC(=O)CCC(=O)NCCCCC(NC(=O)C(CNC(=O)c1ccc([Si](F)(C(C)(C)C)C(C)(C)C)cc1)NC(=O)CN1CCN(CC(=O)[O-])CCN(CC(=O)[O-])CCN(CC(=O)[O-])CC1)C(=O)O)C(=O)O)C(=O)O)C(=O)O.[Lu+3] (centres unmarked) [^natLu/[^177Lu]Lu-7],no internalization could be detected,0.5 h: 0.00 ± 0.00 1 h: 0.00 ± 0.00 2 h: 0.00 ± 0.00 4 h: 0.00 ± 0.00%,0.5 h: 0.00 ± 0.00 1 h: 0.00 ± 0.00 2 h: 0.00 ± 0.00 4 h: 0.00 ± 0.00%,0.5 h: 0.00 ± 0.00 1 h: 0.00 ± 0.00 2 h: 0.00 ± 0.00 4 h: 0.00 ± 0.00%,0.5 h: 0.00 ± 0.00 1 h: 0.00 ± 0.00 2 h: 0.00 ± 0.00 4 h: 0.00 ± 0.00%,−2.37 ± 0.22,6.3 ± 3.6,0.03 ± 0.01,0.10 ± 0.05,2.04 ± 0.75,0.17 ± 0.05,0.04 ± 0.01,0.02 ± 0.00,0.06 ± 0.01,0.08 ± 0.02,0.04 ± 0.01,0.05 ± 0.02,0.14 ± 0.05,Biodistribution Adrenals [2]: 0.03 ± 0.01 % ID/g; Biodistribution Blood [2]: 0.01 ± 0.00 % ID/g; Biodistribution Bone [2]: 0.04 ± 0.01 % ID/g; Biodistribution Muscle [2]: 0.01 ± 0.00 % ID/g
botulinum toxin,,,,,,,,,,,,,,,,,,,decrease of the SUVmean in the right parotid gland compared to the left (control) [3]: up to 64%
